Assay results as given in patent US3974140A, “Ureidoacetamido-penicillins” (Bayer Aktiengesellschaft, priority 1970, dated 1976).

How the values were obtained:
Assay in all cases: MIC, liquid medium test tube series dilution test
Proteus vulg. 1017 = assay type: cell-based, Proteus vulgaris; conditions: Proteus vulg. 1017, 24 hours, 37°C
How it was run: (§1)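 Broth tube serial dilution in complete nutrient medium; tubes read after 24 hours' incubation at 37°C. MIC taken as the concentration in the non-turbid tube of the dilution series, expressed in units/ml.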

Proteus vulg. 3400 = assay type: cell-based, Proteus vulgaris; conditions: Proteus vulg. 3400, 24 hours, 37°C
How it was run: as §1

E. coli C 165 = assay type: cell-based; conditions: E. coli C 165, 24 hours, 37°C
How it was run: as §1

[1] = tested on: Streptoc. faec. ATCC 9790; assay type: cell-based; conditions: Strep. faec. (Enterococcus) ATCC 9790, 24 hours, 37°C
How it was run: as §1

Klebsiella K 10 = assay type: cell-based; conditions: Klebsiella K 10, 24 hours, 37°C
How it was run: as §1

E. coli 14 = assay type: cell-based; conditions: E. coli 14, 24 hours, 37°C
How it was run: as §1

E. coli 183/58 = assay type: cell-based; conditions: E. coli 183/58, 24 hours, 37°C
How it was run: as §1

Klebsiella 63 = assay type: cell-based; conditions: Klebsiella 63, 24 hours, 37°C
How it was run: as §1

E. coli A 261 = assay type: cell-based; conditions: E. coli A 261, 24 hours, 37°C
How it was run: as §1

Staph. aureus 133 = assay type: cell-based, Staphylococcus aureus; conditions: Staph. aureus 133, 24 hours, 37°C
How it was run: as §1

Staph. aureus 1777 E = assay type: cell-based, Staphylococcus aureus; conditions: 24 hours, 37°C
How it was run: as §1

Psdm. aerug. Walter = assay type: cell-based, Pseudomonas aerug.; conditions: 24 hours, 37°C
How it was run: as §1

Psdm. aerug. Bonn = assay type: cell-based, Pseudomonas aerug.; conditions: 24 hours, 37°C
How it was run: as §1

| Structure (SMILES) | MIC (Proteus vulg. 1017) | MIC (Proteus vulg. 3400) | MIC (E. coli C 165) | MIC [1] | MIC (Klebsiella K 10) [units/ml] | MIC (E. coli 14) | MIC (E. coli 183/58) | MIC (Klebsiella 63) [units/ml] | MIC (E. coli A 261) [units/ml] | MIC (Staph. aureus 133) | MIC (Staph. aureus 1777 E) | MIC (Psdm. aerug. Walter) | MIC (Psdm. aerug. Bonn) | other results |
| --- | --- | --- | --- | --- | --- | --- | --- | --- | --- | --- | --- | --- | --- | --- |
| COC(=O)N(C)C(=O)N[C@@H](C(=O)N[C@@H]1C(=O)N2[C@@H]1SC(C)(C)[C@@H]2C(=O)O)c1c(Cl)cccc1Cl [Example 7, Sodium D(-)-α-(3-methoxycarbonyl-3-methyl-ureido)-2,6-dichlorobenzylpenicillin] | ~ 500 units/ml | 100-500 units/ml | 100-500 units/ml | 100-500 units/ml | > 500 | 100-500 units/ml | 100-500 units/ml | > 500 | > 500 | 0.8-4 units/ml | 100-500 units/ml | > 500 units/ml | 100-500 units/ml |  |
| COC(=O)N(C)C(=O)N[C@H](C(=O)N[C@@H]1C(=O)N2[C@@H]1SC(C)(C)[C@@H]2C(=O)O)c1c(Cl)cccc1Cl [Example 8, Sodium L(+)-α-(3-methoxycarbonyl-3-methyl-ureido)-2,6-dichlorobenzylpenicillin] | > 500 units/ml | > 500 units/ml | > 500 units/ml | > 500 units/ml | > 500 | > 500 units/ml | > 500 units/ml | > 500 | > 500 | 4-20 units/ml | 100-500 units/ml | > 500 units/ml | > 500 units/ml |  |
| COC(=O)N(C)C(=O)N[C@@H](C(=O)N[C@@H]1C(=O)N2[C@@H]1SC(C)(C)[C@@H]2C(=O)O)c1ccccc1 [Example 10 B] |  |  |  |  |  |  |  |  | > 400 |  | 400 units/ml |  |  | MIC (Proteus vulg. 1017; listed as 10 B): 200 units/ml; MIC (Proteus vulg. 3400; listed as 10 B): 200 units/ml; MIC (E. coli C 165; listed as 10 B): 50 units/ml; MIC ([1]; listed as 10 B): 100 units/ml; MIC (Klebsiella K 10; listed as 10 B): 50 units/ml; MIC (Klebsiella K 10; listed as (A) of Example 10): 200 units/ml; MIC (E. coli 14; listed as 10 B): 12.5 units/ml; MIC (E. coli 14; listed as (A) of Example 10): 12.5 units/ml; MIC (E. coli 183/58; listed as 10 B): 50 units/ml; MIC (E. coli 183/58; listed as (A) of Example 10): 50 units/ml; MIC (Klebsiella 63; listed as 10 B): 50 units/ml; MIC (Klebsiella 63; listed as (A) of Example 10): 200 units/ml; MIC (Staph. aureus 133; listed as 10 B): 1.6 units/ml; MIC (Staph. aureus 133; listed as (A) of Example 10): 1.56 units/ml; MIC (Psdm. aerug. Walter; listed as 10 B): 200 units/ml; MIC (Psdm. aerug. Walter; listed as (A) of Example 10): 50 units/ml; MIC (Psdm. aerug. Bonn; listed as 10 B): 200 units/ml; MIC (Psdm. aerug. Bonn; listed as (A) of Example 10): 50 units/ml |
| CC(C)OC(=O)N(C)C(=O)N[C@@H](C(=O)N[C@@H]1C(=O)N2[C@@H]1SC(C)(C)[C@@H]2C(=O)O)c1ccccc1 [Example 11 C, Sodium D(-)-α-(3-isopropoxycarbonyl-3-methyl-ureido)-benzyl-penicillin] |  |  |  | 200 units/ml |  |  |  |  | > 400 | 1.6 units/ml | 400 units/ml |  |  | MIC (Proteus vulg. 1017; listed as 11 C): 100 units/ml; MIC (Proteus vulg. 3400; listed as 11 C): 100 units/ml; MIC (E. coli C 165; listed as 11 C): 50 units/ml; MIC (E. coli C 165; listed as (A) of Example 11): 50 units/ml; MIC (Klebsiella K 10; listed as 11 C): 50 units/ml; MIC (E. coli 14; listed as 11 C): 6.3 units/ml; MIC (E. coli 14; listed as (A) of Example 11): 6.25 units/ml; MIC (E. coli 183/58; listed as 11 C): 12.5 units/ml; MIC (E. coli 183/58; listed as (A) of Example 11): 12.5 units/ml; MIC (Klebsiella 63; listed as 11 C): 100 units/ml; MIC (Psdm. aerug. Walter; listed as 11 C): 200 units/ml; MIC (Psdm. aerug. Walter; listed as (A) of Example 11): 100 units/ml; MIC (Psdm. aerug. Bonn; listed as 11 C): 400 units/ml; MIC (Psdm. aerug. Bonn; listed as (A) of Example 11): 50 units/ml |
| CCCCOC(=O)N(C)C(=O)N[C@@H](C(=O)N[C@@H]1C(=O)N2[C@@H]1SC(C)(C)[C@@H]2C(=O)O)c1ccccc1 [Example 12, Sodium D(-)-α-(3-n-butoxycarbonyl-3-methyl-ureido)-benzylpenicillin] | 100 units/ml | 100 units/ml | 50 units/ml | 200 units/ml | 50 | 6.3 units/ml | 12.5 units/ml | 100 | > 400 | 1.6 units/ml | 400 units/ml | 200 units/ml | 400 units/ml |  |
| Cc1ccc(C(NC(=O)N2CCNC2=O)C(=O)N[C@@H]2C(=O)N3[C@@H]2SC(C)(C)[C@@H]3C(=O)O)cc1 (stereo partly drawn) [Example 45, Sodium α-[(imidazolidin-2-on-1-yl)-carbonylamino]-p-methylbenzylpenicillin] | 100 units/ml | 100 units/ml | 25 units/ml | 50 units/ml | 100 | 6,25 units/ml | 6,25 units/ml | 100 | > 400 | < 0,78 units/ml | 400 units/ml | 12,5 units/ml | 25 units/ml |  |
| Cc1ccc(C(NC(=O)N2CCNC2=O)C(=O)N[C@@H]2C(=O)N3[C@@H]2SC(C)(C)[C@@H]3C(=O)O)cc1 (stereo partly drawn) [Example 46, Sodium α-[(imidazolidin-2-on-1-yl)-carbonylamino]-p-methylbenzylpenicillin] | 25 units/ml | 50 units/ml | 50 units/ml | 50 units/ml | 100 | 6,25 units/ml | 12,5 units/ml | 50 | > 400 | 1,56 units/ml | 200 units/ml | 25 units/ml | 25 units/ml |  |
| CC1(C)S[C@@H]2[C@H](NC(=O)C(NC(=O)N3CCNC3=O)c3ccc(Cl)cc3)C(=O)N2[C@H]1C(=O)O (stereo partly drawn) [Example 47, Sodium α-[(imidazolidin-2-on-1-yl)-carbonylamino]-p-chloro benzylpenicillin] | 50 units/ml | 100 units/ml | 25 units/ml | 50 units/ml | 100 | 3,12 units/ml | 6,25 units/ml | 50 | > 400 | < 0,78 units/ml | 200 units/ml | 12,5 units/ml | 12,5 units/ml |  |
| CC1(C)S[C@@H]2[C@H](NC(=O)[C@H](NC(=O)N3CCNC3=O)c3ccccc3)C(=O)N2[C@H]1C(=O)O [Example 51, Sodium D(-)-α-[(imidazolidin-2-on-1-yl)-carbonylamino]-benzylpenicillin] | 25 units/ml | 25 units/ml | 12,5 units/ml | 25 units/ml | 100 | 3,12 units/ml | 12,5 units/ml | 50 | 400 | < 0,78 units/ml | 400 units/ml | 12,5 units/ml | 12,5 units/ml |  |
| C=CCN(C(=O)N[C@@H](C(=O)N[C@@H]1C(=O)N2[C@@H]1SC(C)(C)[C@@H]2C(=O)O)c1ccccc1)C(=O)c1ccccc1 [Example 90, Sodium D(-)-α-(3-benzoyl-3-allyl-ureido)-benzylpenicillin] | 12.5 units/ml | 25 units/ml | 12.5 units/ml | 100 units/ml | 50 | 6.25 units/ml | 12.5 units/ml | 25 | 400 |  | 50 units/ml | 50 units/ml | 25 units/ml |  |
